Experimental data as given in patent US7138361B2, “Herbicidal heterocycles” (E. I. du Pont de Nemours and Company, priority 2000, dated 2006).

Key:
Format in all cases: in vivo
[1] = tested on: barnyardgrass (Echinochloa crus-galli); experiment: Test C flooded paddy test; settings: for Barnyardgrass plant response rating: Flooded Paddy, scale 0 to 100, 0 no effect, 100 complete control; for Plant response rating, Barnyardgrass / Plant response rating (scale 0 to 100), Barnyardgrass: flooded paddy test; for Plant response rating, Barnyardgrass: scale 0 to 100 (0 no effect, 100 complete control)
Summary of the method: (§1)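 Each species was cultivated to 2 leaves in flooded paddy pots, then treated. After a greenhouse period of 12–14 days, the plants were scored visually relative to controls from 0 (no effect) to 100 (complete control).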

rice (Oryza saliva) [2] = experiment: Test C flooded paddy test; settings: for Rice plant response rating: Flooded Paddy, scale 0 to 100, 0 no effect, 100 complete control; for Plant response rating, Rice / Plant response rating (scale 0 to 100), Rice: flooded paddy test; for Plant response rating, Rice: scale 0 to 100 (0 no effect, 100 complete control)
Summary of the method: as §1

[3] = tested on: duck salad (Heteranthera limosa); experiment: Test C flooded paddy test; settings: for Ducksalad plant response rating: Flooded Paddy, scale 0 to 100, 0 no effect, 100 complete control; for Plant response rating, Ducksalad / Plant response rating (scale 0 to 100), Ducksalad: flooded paddy test; for Plant response rating, Ducksalad: scale 0 to 100 (0 no effect, 100 complete control)
Summary of the method: as §1

corn (Zea mays) = experiment: Test C postemergence
Summary of the method: (§2)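 Compounds in non-phytotoxic solvent with surfactant applied preemergence to planted seeds and postemergence to plants at 1- to 4-leaf stage (2–18 cm). Kept in greenhouse 12–14 days, then visually rated against controls on a 0 (no effect) to 100 (complete control) scale.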

[4] = tested on: velvetleaf (Abutilon theophrasti); experiment: Test C postemergence
Summary of the method: as §2

[5] = tested on: bermudagrass (Cynodon dactylon); experiment: Test C postemergence
Summary of the method: as §2

kochia (Kochia scoparia) = experiment: Test C postemergence
Summary of the method: as §2

[6] = tested on: johnsongrass (Sorghum halepense); experiment: Test C postemergence
Summary of the method: as §2

[7] = tested on: pigweed (Amaranthus retroflexus); experiment: Test C postemergence
Summary of the method: as §2

[8] = tested on: yellow nutsedge (Cyperus esculentus); experiment: Test C postemergence
Summary of the method: as §2

[9] = tested on: lambsquarters (Chenopodium album); experiment: Test C postemergence
Summary of the method: as §2

soybean (Glycine max) = experiment: Test C postemergence
Summary of the method: as §2

[10] = tested on: cocklebur (Xanthium strumarium); experiment: Test C postemergence
Summary of the method: as §2

[11] = tested on: giant foxtail (Setaria faberii); experiment: Test C postemergence
Summary of the method: as §2

[12] = tested on: crabgrass (Digitaria sanguinalis); experiment: Test C postemergence
Summary of the method: as §2

[13] = tested on: goosegrass (Eleusine indica); experiment: Test C postemergence
Summary of the method: as §2

[14] = tested on: morningglory (Ipomoea hederacea); experiment: Test C postemergence
Summary of the method: as §2

[15] = tested on: smallflower flatsedge (Cyperus difformis); experiment: Test B flooded paddy test; settings: Rate 1000 g/ha, scale of 0 to 100 where 0 is no effect and 100 is complete control, visually evaluated after 13 to 15 days
Summary of the method: (§3)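 2-leaf plants, flooded paddy; greenhouse 13–15 d post-treatment; visual rating vs controls, 0–100 scale (0 = no effect, 100 = complete control); dash = no result.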

[16] = tested on: barnyardgrass (Echinochloa crus-galli); experiment: Test B flooded paddy test; settings: Rate 1000 g/ha, scale of 0 to 100 where 0 is no effect and 100 is complete control, visually evaluated after 13 to 15 days
Summary of the method: as §3

rice (Oryza saliva) [17] = experiment: Test B flooded paddy test; settings: Rate 1000 g/ha, scale of 0 to 100 where 0 is no effect and 100 is complete control, visually evaluated after 13 to 15 days
Summary of the method: as §3

[18] = tested on: duck salad (Heteranthera limosa); experiment: Test B flooded paddy test; settings: Rate 1000 g/ha, scale of 0 to 100 where 0 is no effect and 100 is complete control, visually evaluated after 13 to 15 days
Summary of the method: as §3

[19] = Rate 16 g/ha, visually evaluated after 12 to 14 days, 0 = no effect, 100 = complete control
[20] = under head Rate 16 g/ha, (own rate not given), after 12 to 14 days
[21] = Rate 125 g/ha, scale 0 to 100, 0 no effect, 100 complete control
[22] = Rate 250 g/ha, scale 0 to 100 (0 no effect, 100 complete control)
[23] = Rate 500 g/ha, scale 0 to 100 (0 no effect, 100 complete control)

CC(C)(C)c1ccn(C2SCN(c3cccc(OC(F)(F)F)c3)C2=O)n1 (centres unmarked) [Compound 30]
Barnyardgrass plant response rating ([1]; Rate 250 g/ha): 100
Barnyardgrass plant response rating ([1]; Rate 500 g/ha): 100
Plant response rating, Barnyardgrass ([1]; Rate 62 g/ha): 100
Plant response rating, Barnyardgrass ([1]; Rate 125 g/ha): 100
Plant response rating (scale 0 to 100), Barnyardgrass [1, 19]: 80
Plant response rating (scale 0 to 100), Barnyardgrass [1, 20]: 60
Rice plant response rating (rice (Oryza saliva) [2]; Rate 250 g/ha): 80
Rice plant response rating (rice (Oryza saliva) [2]; Rate 500 g/ha): 80
Plant response rating, Rice (rice (Oryza saliva) [2]; Rate 62 g/ha): 0
Plant response rating, Rice (rice (Oryza saliva) [2]; Rate 125 g/ha): 20
Plant response rating (scale 0 to 100), Rice (rice (Oryza saliva) [2]; [19]): 0
Plant response rating (scale 0 to 100), Rice (rice (Oryza saliva) [2]; [20]): 0
Ducksalad plant response rating ([3]; Rate 250 g/ha): 100
Ducksalad plant response rating ([3]; Rate 500 g/ha): 100
Plant response rating, Ducksalad ([3]; Rate 62 g/ha): 70
Plant response rating, Ducksalad ([3]; Rate 125 g/ha): 100
Plant response rating (scale 0 to 100), Ducksalad [3, 19]: 50
Plant response rating (scale 0 to 100), Ducksalad [3, 20]: 0
Plant response rating, Corn (corn (Zea mays); [21]): 20
Plant response rating, Corn (corn (Zea mays); [22]): 30
Plant response rating, Corn (corn (Zea mays); [23]): 40
Plant response rating, Velvetleaf [4, 21]: 30
Plant response rating, Velvetleaf [4, 22]: 50
Plant response rating, Velvetleaf [4, 23]: 60
Plant response rating, Bermudagrass ([5]; Rate 62 g/ha, scale 0 to 100, 0 no effect, 100 complete control): 70
Plant response rating, Bermudagrass [5, 21]: 80
Plant response rating, Bermudagrass [5, 22]: 80
Plant response rating, Bermudagrass [5, 23]: 90
Plant response rating, Kochia (kochia (Kochia scoparia); [21]): 70
Plant response rating, Kochia (kochia (Kochia scoparia); [22]): 70
Plant response rating, Kochia (kochia (Kochia scoparia); [23]): 90
Plant response rating, Johnsongrass [6, 21]: 0
Plant response rating, Johnsongrass [6, 22]: 0
Plant response rating, Johnsongrass [6, 23]: 90
Plant response rating, Pigweed [7, 21]: 80
Plant response rating, Pigweed [7, 22]: 90
Plant response rating, Pigweed [7, 23]: 100
Plant response rating, Nutsedge [8, 21]: 0
Plant response rating, Nutsedge [8, 22]: 0
Plant response rating, Nutsedge [8, 23]: 0
Plant response rating, Lambsquarters [9, 21]: 90
Plant response rating, Lambsquarters [9, 22]: 90
Plant response rating, Lambsquarters [9, 23]: 90
Plant response rating, Soybean (soybean (Glycine max); [21]): 0
Plant response rating, Soybean (soybean (Glycine max); [22]): 0
Plant response rating, Soybean (soybean (Glycine max); [23]): 0
Plant response rating, Cocklebur [10, 21]: 30
Plant response rating, Cocklebur [10, 22]: 30
Plant response rating, Cocklebur [10, 23]: 50
Plant response rating, Foxtail, Giant [11, 21]: 0
Plant response rating, Foxtail, Giant [11, 22]: 30
Plant response rating, Foxtail, Giant [11, 23]: 80
Plant response rating, Crabgrass [12, 21]: 30
Plant response rating, Crabgrass [12, 22]: 30
Plant response rating, Crabgrass [12, 23]: 90
Plant response rating, Goosegrass [13, 21]: 0
Plant response rating, Goosegrass [13, 22]: 30
Plant response rating, Goosegrass [13, 23]: 40
Plant response rating, Morningglory [14, 21]: 0
Plant response rating, Morningglory [14, 22]: 40
Plant response rating, Morningglory [14, 23]: 40
Plant response rating, Flatsedge [15]: 100
Plant response rating, Barnyardgrass [16]: 100
Plant response rating, Rice (rice (Oryza saliva) [17]): 90
Plant response rating, Ducksalad [18]: 100

O=C1C(n2ccc(C3CCCCC3)n2)OCN1c1cccc(C(F)(F)F)c1 (centres unmarked) [Compound 51]
Barnyardgrass plant response rating ([1]; Rate 250 g/ha): 90
Plant response rating, Barnyardgrass ([1]; Rate 62 g/ha): 20
Plant response rating, Barnyardgrass ([1]; Rate 125 g/ha): 20
Rice plant response rating (rice (Oryza saliva) [2]; Rate 250 g/ha): 0
Rice plant response rating (rice (Oryza saliva) [2]; Rate 500 g/ha): 0
Plant response rating, Rice (rice (Oryza saliva) [2]; Rate 62 g/ha): 0
Plant response rating, Rice (rice (Oryza saliva) [2]; Rate 125 g/ha): 0
Ducksalad plant response rating ([3]; Rate 250 g/ha): 40
Ducksalad plant response rating ([3]; Rate 500 g/ha): 70
Plant response rating, Ducksalad ([3]; Rate 62 g/ha): 0
Plant response rating, Ducksalad ([3]; Rate 125 g/ha): 0
Plant response rating, Flatsedge [15]: 100
Plant response rating, Barnyardgrass [16]: 100
Plant response rating, Rice (rice (Oryza saliva) [17]): 30
Plant response rating, Ducksalad [18]: 100
